Common to all, as to format: physicochemical
A short description of data set [1]: Apparent density of the crystalline forms. Particulars: for Apparent density: powder of the crystalline form, paired with the specific surface area of the same line. An excerpt:
(§1) The dissolution kinetics promote the xenobiotic bioavailability of this type of active principle. It is also known that the dissolution kinetics are accelerated by increasing the specific surface area. […] Table I below gives the respective values of the apparent density and the specific surface area (BET surface area) for the various crystalline forms.

A short description of data set [2]: Specific surface area (BET) of the crystalline forms. Particulars: powder of the crystalline form; paired with the apparent density of the same line.
Description: as §1

Data set [3] is described as follows: Comparative grinding studies (jet micronisation): specific surface area (BET) of batches. Particulars: for BET: after grinding, feed pressure, grinding pressure and feed flow differ per batch (batches 1-11, see line of table). The method, then:
In addition, comparative grinding studies, in particular by jet micronisation, were performed so as to obtain powders of the stable and metastable forms having the same specific surface area.
Table II below presents a comparison of the specific surface areas of different batches of the compound of the formula I in which n represents 1 and R in position 7 represents methoxy, obtained by carrying out different grinding conditions.

The source of these data is US7470719B2, “Metastable benzoxepne derivatives which can be used in the treatment of dyslipidaemia a therosclerosis and diabetes, pharmaceutical compositions comprising them and processes for the preparation thereof” (Merck Patent GmbH, priority 2002, dated 2008).

Several values for one entry are separate records, joined by “and”; a condition that tells them apart may be missing. Equal entries are not always repeated.

Take `COc1ccc2c(c1)C(/C=C/C(C)=C/C(=O)O)=CC(C)(C)CO2` [stable, 2E,4E-(methoxy-7-dimethyl-3,3-dihydro-2,3-benzoxepin-1-yl-5)-5-methyl-3-pentadien-2,4-oic acid]: in data set [1], the Apparent density is 0.18 and 0.29 and 0.16.

In the case of `COc1ccc2c(c1)C(/C=C/C(C)=C/C(=O)O)=CC(C)(C)CO2` [metastable, 2E,4E-(methoxy-7-dimethyl-3-dihydro-2,3-benzoxepin-1-yl-5)-5-methyl-3-pentadien-2,4-oic Acid], in data set [2], the “Specific surface area or BET” value was 3.1 m^2/g and 2.8 m^2/g. In data set [1] (for the same specific surface area value), the “Apparent density of metastable form compared with thermodynamically stable form” value is recorded as “greater apparent density”. The Apparent density in data set [1] turned out to be 0.30. The BET amounted to 6.2 m^2/g in data set [3] (feed 2.0 bar, grinding 1.0 bar, 4.5 kg/h); 7.2 m^2/g in data set [3] (feed 2.2 bar, grinding 1.2 bar, 5.0 kg/h); 10.2 m^2/g in data set [3] (feed 2.5 bar, grinding 1.5 bar, 1.5 kg/h); 9.1 m^2/g in data set [3] (feed 2.5 bar, grinding 1.5 bar, 2.4 kg/h); 9.2 m^2/g in data set [3] (feed 2.5 bar, grinding 1.5 bar, 6.5 kg/h). Besides, the “Specific surface area (BET) after grinding, metastable versus stable form” value in data set [3] (jet micronisation, similar operating conditions (feed pressure and grinding pressure)) is recorded as “greater specific surface area (BET)”. Also, in data set [3] (metastable versus stable form), the “Suitability for grinding or micronisation” value is “more suitable for grinding or micronisation”.
